Data: patent US11155551B2, “Nicotinic acetylcholine receptor silent agonists” (University of Florida Research Foundation, Inc., priority 2015, dated 2021)

Key:
α4β2 nAChR = α4β2 nAChR (Homo sapiens, UniProt P17787+P43681); experiment: Receptor subtype specificity: α4β2 nAChR activation / antagonism; format: cell-based; conditions: for antagonist activity at α4β2: 100 μM
human α7 nAChR = target: T1, human α7 nAChR (Homo sapiens, UniProt P36544); experiment: Two-electrode voltage clamping of human α7 nAChR expressed in Xenopus oocytes (net-charge / peak current relative to 60 μM ACh); format: cell-based; conditions: for functional classification at α7 nAChR: 30 μM alone and with 10 μM PNU-120596, partial agonist = net charge > 1/10th ACh control; for Potentiated response: 30 μM test compound + 10 μM PNU-120596 co-application; for Potentiated response / Relative response: relative to 60 μM ACh control, mean ± SEM, N ≥ 4; for Relative response: net-charge response to 30 μM test compound alone
T1 construct: expressed in transfected cells; host or cells: Xenopus oocytes
Description: Electrophysiology: The panel of compounds synthesized was assayed using human α7 nAChR expressed in Xenopus oocytes and two-electrode voltage clamping. The partial agonism activity was evaluated, quantified as net-charge for 30 μM applications of compounds, measured relative to the control response to applications of 60 μM ACh. The induction of PAM-sensitive desensitization was detected as the net-charge responses when compounds were co-applied with the PAM PNU-120596 (30 μM compound+10 μM PNU-120596), measured relative to responses to 60 μM ACh applied alone. […] It is a unique property of α7 orthosteric agonist-induced currents that they vary systematically in the relationship between peak current and net charge as a function of the effective concentration applied (Papke & Papke (2002) Br. J. Pharm. 137: 49-61; Papke & Thinschmidt (1998) Neurosci. Let. 256: 163-166). This was due to the concentration-dependent desensitization of the receptors, which is likely to be associated with high levels of agonist binding site occupancy (Williams et al., (2011) J. Gen. Physiol. 137: 369-384) and is observed even when agonists are rapidly applied to small cells (Williams et al., (2012) Mol. Pharmacol. 82: 746-759) or acutely dissociated neurons (Uteshev et al., (2002) Brain Res. 948: 33-46). The control ACh concentration used for these experiments is roughly the EC80 for the net-charge responses.
By normalizing both the peak currents and net-charge measurements of the drug responses at the probe concentration of 30 μM (FIG. 3B) to those of the ACh control, the relationship between the probe concentration and the EC for each of the drugs was estimated (Papke, R. L. (2005) Life Sci.). At a concentration where the ratio of the normalized measures equaled one, the drug would be at the same effective concentration as 60 μM ACh.
Electrophysiology: New compounds were assayed for activity with the α7 nAChR expressed in Xenopus oocytes using two-electrode voltage clamping as previously described in Papke et al., (2014) J. Pharmacol. Experimental Therap. 350: 665-680, incorporated herein by reference in its entirety, and compared to responses evoked by 60 μM Ach (FIGS. 5 and 6). The compound set was assayed at a concentration of 30 μM to provide a standard comparison benchmark.
Based on earlier experience this concentration is high enough to provide an observable response and low enough to avoid possible complications such as channel block. The net-charge response for each compound application is reported relative to those for ACh control applications. Data were expressed as the mean ±S.E.M. from at least four oocytes for each experiment and were plotted by Kaleidagraph (Abelbeck Software, Reading, Pa.).

[1] = tested on: LPS-stimulated secretion of TNF-α in rat cultured microglia; conditions: cited from earlier work
mouse pain models = conditions: formalin- and acetic acid-induced nociceptive conditions, chronic constrictive nerve injury; cited from earlier work
α3β4 nAChR = α3β4 nAChR (Homo sapiens, UniProt P30926+P32297); experiment: Receptor subtype specificity: α3β4 nAChR activation / antagonism; format: cell-based; conditions: 100 μM
α3β4 nAChR, sequence (P32297 32-505): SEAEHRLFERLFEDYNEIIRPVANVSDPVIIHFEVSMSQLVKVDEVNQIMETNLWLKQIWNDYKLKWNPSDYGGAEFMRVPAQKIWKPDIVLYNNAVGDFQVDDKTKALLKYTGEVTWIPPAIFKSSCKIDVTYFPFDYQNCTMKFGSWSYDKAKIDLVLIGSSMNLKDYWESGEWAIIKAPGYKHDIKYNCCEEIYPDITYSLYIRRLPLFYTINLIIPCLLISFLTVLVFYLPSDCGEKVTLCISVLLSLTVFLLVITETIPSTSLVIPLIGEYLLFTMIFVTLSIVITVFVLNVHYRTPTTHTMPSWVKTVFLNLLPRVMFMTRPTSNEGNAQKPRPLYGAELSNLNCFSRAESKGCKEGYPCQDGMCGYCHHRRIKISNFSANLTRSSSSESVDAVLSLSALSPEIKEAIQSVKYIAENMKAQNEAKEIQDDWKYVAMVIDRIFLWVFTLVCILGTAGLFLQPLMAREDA
α3β4 nAChR, sequence (P30926 22-498): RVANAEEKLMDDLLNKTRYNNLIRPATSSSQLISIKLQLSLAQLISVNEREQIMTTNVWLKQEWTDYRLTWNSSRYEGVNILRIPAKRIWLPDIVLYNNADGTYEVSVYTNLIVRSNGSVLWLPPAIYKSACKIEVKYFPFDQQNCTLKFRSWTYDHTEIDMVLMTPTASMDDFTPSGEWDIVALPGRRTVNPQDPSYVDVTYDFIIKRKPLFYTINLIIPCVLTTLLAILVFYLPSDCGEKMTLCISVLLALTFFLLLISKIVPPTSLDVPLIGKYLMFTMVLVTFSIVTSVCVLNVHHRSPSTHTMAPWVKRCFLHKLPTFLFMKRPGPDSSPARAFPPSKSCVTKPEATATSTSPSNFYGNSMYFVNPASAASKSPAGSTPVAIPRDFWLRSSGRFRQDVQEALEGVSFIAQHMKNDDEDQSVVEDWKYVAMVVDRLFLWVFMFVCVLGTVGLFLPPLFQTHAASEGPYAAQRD

T1 sequence (P36544 23-502): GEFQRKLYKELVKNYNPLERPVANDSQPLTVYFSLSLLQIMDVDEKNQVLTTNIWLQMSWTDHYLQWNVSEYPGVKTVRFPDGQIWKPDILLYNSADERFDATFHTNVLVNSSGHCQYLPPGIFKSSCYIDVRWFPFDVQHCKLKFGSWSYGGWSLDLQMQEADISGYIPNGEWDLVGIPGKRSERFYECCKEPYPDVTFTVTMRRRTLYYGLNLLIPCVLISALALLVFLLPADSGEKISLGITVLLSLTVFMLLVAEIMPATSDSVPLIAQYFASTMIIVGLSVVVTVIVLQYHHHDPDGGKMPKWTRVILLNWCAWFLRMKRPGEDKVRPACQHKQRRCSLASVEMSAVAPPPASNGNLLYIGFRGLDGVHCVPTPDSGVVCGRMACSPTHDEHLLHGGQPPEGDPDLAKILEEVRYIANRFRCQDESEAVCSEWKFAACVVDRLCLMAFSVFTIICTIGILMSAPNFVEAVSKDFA
α4β2 nAChR, sequence (P43681 29-627 limits assumed): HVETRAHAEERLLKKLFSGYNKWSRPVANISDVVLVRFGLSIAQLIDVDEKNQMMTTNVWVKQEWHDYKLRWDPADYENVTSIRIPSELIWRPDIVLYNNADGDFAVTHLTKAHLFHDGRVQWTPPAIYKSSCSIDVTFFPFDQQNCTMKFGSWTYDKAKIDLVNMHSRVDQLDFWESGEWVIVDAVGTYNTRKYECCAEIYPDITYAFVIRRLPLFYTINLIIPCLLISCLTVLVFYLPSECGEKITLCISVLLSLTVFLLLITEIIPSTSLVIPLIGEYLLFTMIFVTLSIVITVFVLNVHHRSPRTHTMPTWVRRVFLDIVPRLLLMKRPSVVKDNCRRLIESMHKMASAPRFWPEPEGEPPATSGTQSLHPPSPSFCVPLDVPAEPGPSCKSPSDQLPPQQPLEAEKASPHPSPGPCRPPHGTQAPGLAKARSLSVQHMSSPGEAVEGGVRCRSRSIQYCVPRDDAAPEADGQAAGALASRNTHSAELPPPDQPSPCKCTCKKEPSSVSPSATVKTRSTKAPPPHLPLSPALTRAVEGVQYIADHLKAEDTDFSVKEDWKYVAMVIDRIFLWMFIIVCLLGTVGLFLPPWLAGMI
α4β2 nAChR, sequence (P17787 26-502): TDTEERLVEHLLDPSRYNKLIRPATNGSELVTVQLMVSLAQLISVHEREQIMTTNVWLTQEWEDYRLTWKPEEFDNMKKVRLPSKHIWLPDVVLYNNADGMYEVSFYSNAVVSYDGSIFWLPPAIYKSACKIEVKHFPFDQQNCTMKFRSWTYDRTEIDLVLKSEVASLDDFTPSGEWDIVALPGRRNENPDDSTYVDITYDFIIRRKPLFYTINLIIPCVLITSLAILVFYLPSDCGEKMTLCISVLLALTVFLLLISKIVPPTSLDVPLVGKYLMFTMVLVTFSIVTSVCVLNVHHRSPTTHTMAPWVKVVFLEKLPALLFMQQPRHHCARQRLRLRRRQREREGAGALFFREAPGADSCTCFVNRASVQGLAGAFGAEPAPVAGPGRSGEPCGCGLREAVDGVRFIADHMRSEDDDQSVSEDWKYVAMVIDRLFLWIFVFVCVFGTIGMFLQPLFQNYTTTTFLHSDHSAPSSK

Structure (SMILES): CC[N+]1(CC)CCN(c2ccc(C(F)(F)F)cc2)CC1.[I-] [Compound 2n, 1,1-diethyl-4-(4-(trifluoromethyl)phenyl)piperazin-1-ium iodide]
- activation / partial agonism of α4β2 nAChR (α4β2 nAChR): neither to be partial agonists
- antagonist activity at α4β2 (α4β2 nAChR): nor to have significant antagonist activity
- functional classification at α7 nAChR (human α7 nAChR): candidate silent agonists
- Potentiated response (human α7 nAChR): 61.8 ± 7.7
- Relative response (human α7 nAChR): 0.032 ± 0.003

Structure (SMILES): O=C(c1ccc(-c2cccc(C(F)(F)F)c2)o1)N1CCN2CCC1CC2 [NS-6740, 1,4-diazabicyclo[3.2.2]nonan-4-yl(5-(3-(trifluoromethyl)phenyl)furan-2-yl) methanone]
- suppression of LPS-stimulated secretion of TNF-α [1]: more efficacious than some agonists (including choline)
- antinociceptive activity (mouse pain models): showed antinoceptive activity

Structure (SMILES): CCN1CCN(c2ccc(C(F)(F)F)cc2)CC1 [Compound 1n, 1-ethyl-4-(4-(trifluoromethyl)phenyl)piperazine]
- Potentiated response (human α7 nAChR): 1.4 ± 0.
- Relative response (human α7 nAChR): 0.000 ± 0.004
- melting point: 56.3 to 56.5 °C

Structure (SMILES): CC[N+]1(CC)CCN(c2cccc(Br)c2)CC1.[I-] [Compound 2p, 4-(3-bromophenyl)-1,1-diethylpiperazin-1-ium iodide]
- activation / partial agonism of α4β2 nAChR (α4β2 nAChR): neither to be partial agonists
- antagonist activity at α4β2 (α4β2 nAChR): nor to have significant antagonist activity
- functional classification at α7 nAChR (human α7 nAChR): candidate silent agonists
- Potentiated response (human α7 nAChR): 10.0±1.7
- PAM-dependent currents relative to ACh (human α7 nAChR; co-application with PNU-120596, meta-substituted series): 9.98 fold
- Relative response (human α7 nAChR): 0.040 ± 0.006

Structure (SMILES): CC[N+]1(CC)CCN(c2cccc(C)c2)CC1.[I-] [Compound 2d, 1,1-diethyl-4-m-tolylpiperazin-1-ium iodide]
- functional classification at α7 nAChR (human α7 nAChR): no significant activity as either partial agonists or as silent agonists
- Potentiated response (human α7 nAChR): 0.2 ± 0.1
- Relative response (human α7 nAChR): 0.001 ± 0.000
- melting point: 144 to 145 °C

Structure (SMILES): CC[N+]1(CC)CCN(c2cccc(OC)c2)CC1.[I-] [Compound 2g, 1,1-diethyl-4-(3-methoxyphenyl)piperazin-1-ium iodide]
- antagonism of α3β4 (α3β4 nAChR): significant antagonism
- functional classification at α7 nAChR (human α7 nAChR): no significant activity as either partial agonists or as silent agonists
- Potentiated response (human α7 nAChR): 0.6 ± 0.2
- PAM-dependent response compared to the parent unsubstituted diEPP (human α7 nAChR; co-application with PNU-120596): 50%
- Relative response (human α7 nAChR): 0.011 ± 0.011

Structure (SMILES): CC[N+]1(CC)CCN(c2ccc(C)cc2)CC1.[I-] [Compound 2a, 1,1-diethyl-4-p-tolylpiperazin-1-ium iodide]
- functional classification at α7 nAChR (human α7 nAChR): candidate silent agonists
- Potentiated response (human α7 nAChR): 3.6 ± 2.0
- Relative response (human α7 nAChR): 0.011 ± 0.003
- melting point: 147.4 to 148.8 °C

Structure (SMILES): CCN1CCN(c2ccc(F)cc2)CC1 [Compound 1r, 1-ethyl-4-(4-fluorophenyl)piperazine]
- Potentiated response (human α7 nAChR): 0.0 ± 0.0
- Relative response (human α7 nAChR): 0.000 ± 0.003
- melting point: 30 to 30.5 °C
